What was measured:
platelets = experiment: Platelet aggregation in whole blood (ADP or collagen); assay type: cell-based, human
Description: Trisodium citrate (3.8%) and whole blood is immediately mixed in a 1:9 ratio, and then centrifuged at 1200 g for 2.5 minutes, to obtain platelet-rich plasma (PRP), which is kept at room temperature for use within 1 hour for platelet aggregation studies. Platelet count is determined in each PRP sample with a Coulter Counter ZM (Coulter Co., Hialeah, Fla.). Platelet numbers are adjusted to 3.50×10^8/ml for aggregation with homologous platelet-poor plasma. PRP and whole blood aggregation tests are performed simultaneously. Whole blood is diluted 1.1 with the 0.5 ml PBS, and then swirled gently to mix . The cuvette with the stirring bar is placed in the incubation well and allowed to warm to 37° C. for 5 minutes. Then the sample are transferred to the assay well. An electrode is placed in the sample cuvette. Platelet aggregation is stimulated with 5 μM ADP, 1 μg/ml collagen, and 0.75 mM arachidonic acid. All agonists are obtained from Chronolog Corporation (Hawertown, Pa.). […] Platelet aggregability are expressed as the percentage of light transmittance change from baseline using platelet-poor plasma as a reference at the end of recording time for plasma samples, or as a change in electrical impedance for whole blood samples. Aggregation curves are recorded for 4 minutes and analyzed according to internationally established standards using Aggrolinkg® software.

PECAM-1 [1] = experiment: Ex vivo soluble PECAM-1 plasma levels in patients; set-up: species or system human; settings: patients with depression following myocardial infarction; after 16 weeks of the sertraline/placebo therapy
Description: Soluble P-selectin (Centocor, Inc., Malvern, Pa. USA); and PECAM-1 (Bender MedSystems, Vienna, Austria) are measured Plasma samples will be extracted with ethanol and then stored at −80° C. before final determination. Enzyme-linked immunosorbent assays will be used according standard techniques and as described herein.

[2] = single doses in volunteers; cited from earlier work
[3] = in vivo; cited from earlier work
P-selectin = experiment: Whole blood flow cytometry; assay type: cell-based, human; settings: for P-Selectin (% +), % of cell positivity: Whole Blood
Description: For ex vivo assessment of the SSRIs effect on a PAM, a level of a PAM can be assessed by flow cytometry by first obtaining a sample that comprises platelets and then contacting the sample with a platelet activation agonist, such as phorbol myristate acetate (PMA), ADP (adenosine diphosphate), thrombin, collagen, and/or TRAP (thrombin receptor activating peptide), under conditions suitable for activation of platelets in the sample. The sample is in contact with the agonist preferably for a period of time effective to maximally activate the platelets. […] Then one contacts or stains the samples with a composition that comprises an anti-PAM antibody e.g., having a fluorescent label, preferably in an amount in excess of that required to bind the PAM expressed on the platelets, under conditions suitable for the formation of labeled complexes between the anti-PAM antibody and activated platelets. Then the formation of the complex in the sample is determined (detected or measured).
Four cc of blood was collected in a tube, containing 2 cc of acid-citrate-dextrose (ACD) (7.3 g citric acid, 22.0 g sodium citrate×2H2O and 24.5 glucose in a total amount of 1000 mL distilled water) and mixed well. The buffer, TBS (10 mM Tris, 0.15 M NaCl, pH 7.4) and the following fluorescein isothiocyanate (FITC) conjugated monoclonal antibodies (PharMingen, San Diego, Calif. USA, and DAKO, Calif., USA) were removed from a refrigerator and allowed to warm at room temperature (RT): CD41 (IIb/IIIa), CD31 (PECAM-1), CD62p (P-selectin), CD51/61 (Vitronectin receptor). Six amber tubes (1.25 ml) were obtained and marked. One Eppendorf tube (1.5 ml) was labeled with “Dill WB”, Patient ID #, Initial and Date. The amber tubes and Eppendorf tube were placed in the rack. […] of TBS buffer was pipetted to the labeled Eppendorf tube. The patient's whole blood tube was inverted gently twice to mix. 50 μl of whole blood was pipetted to the “Dill WB” labeled Eppendorf tube. The Eppendorf tube was capped and the diluted whole blood was mixed by inverting the Eppendorf tube gently two times 50 μl of diluted whole blood was pipetted to each amber tube. 5 μl of appropriate antibody was pipetted to the bottom of the corresponding amber tube. The tubes were covered with aluminum foil and incubated at 4° C. for 30 minutes. After incubation, 400 μl of 2% buffered paraformaldehyde was added. To prepare 2% Paraformaldehyde:Dilute 1 part 10% paraformaldehyde with 4 parts TBS. This solution was stored at 4° C. for up to one week. The amber tubes were closed with a lid tightly and stored in a refrigerator at 4° C. until the flow cytometric analysis. The samples are analyzed on a Becton Dickinson FACScan flow cytometer. The instrument is set up to measure forward light scatter (FSC), and FITC fluorescence. All parameters are collected using four decade logarithmic amplification.
The data in table 1 was obtained using the methods described herein, and in particular, in Examples 1 and 2. The levels of various PAMs were assess from samples of human volunteers. […] Baseline levels of the PAMs were also obtained (without exposure to sertraline or NDMS).

CD9 = experiment: Flow cytometry of platelet antigen expression, platelet rich plasma; assay type: cell-based, human; settings: PRP; healthy volunteers; desmethylsertraline 64.2 ng/ml
GP IIIa = experiment: as above; assay type: cell-based, human; settings: PRP, desmethylsertraline 64.2 ng/ml
CPIa-IIa = experiment: as above; assay type: cell-based, human; settings: PRP; healthy volunteers; desmethylsertraline 64.2 ng/ml
PECAM-1 [4] = experiment: as above; assay type: cell-based, human; settings: PRP, desmethylsertraline 64.2 ng/ml
[5] = post-angioplasty patient on aspirin

Structure (SMILES) | ADP-, and collagen-induced platelet aggregation in whole blood (in vitro), in words (platelets; healthy controls and patients with coronary artery disease, including those on aspirin) | percent of platelet aggregation (FIGS. 2 and 3), in words (platelets; whole blood, healthy volunteer, induced with ADP or collagen, sertraline 18.1, 44.7 or 85.3 ng/ml) | ex vivo PECAM-1 plasma levels, in words (PECAM-1 [1]) | dose at which sedative potential is evident [2] [mg/daily] | half life [3] [h] | P-Selectin (% +), % of cell positivity (P-selectin; healthy volunteers, desmethylsertraline 31.1 ng/ml) [%] | P-Selectin (% +), % of cell positivity (P-selectin; healthy volunteers, desmethylsertraline 64.2 ng/ml) [%] | P-Selectin (% +), % of cell positivity (P-selectin; healthy volunteers, desmethylsertraline 143 ng/ml) [%] | P-Selectin (% +), % of cell positivity (P-selectin; post-angioplasty patient on aspirin, desmethylsertraline 31.1 ng/ml) [%] | P-Selectin (% +), % of cell positivity (P-selectin; post-angioplasty patient on aspirin, desmethylsertraline 64.2 ng/ml) [%] | P-Selectin (% +), % of cell positivity (P-selectin; post-angioplasty patient on aspirin, desmethylsertraline 143 ng/ml) [%] | P-selectin expression (FIG. 4), in words (P-selectin; whole blood, post-angioplasty patient, increasing concentrations) | CD9 (mean) log fluorescence intensity (CD9) | GP IIIa (peak) log fluorescence intensity (GP IIIa; healthy volunteers) | GP IIIa (mean) log fluorescence intensity (GP IIIa; [5]) | CPIa-IIa (mean) log fluorescence intensity (CPIa-IIa) | CPIa-IIa (peak) log fluorescence intensity (CPIa-IIa) | PECAM-1 (peak) log fluorescence intensity (PECAM-1 [4]; healthy volunteers) | PECAM-1 (mean) log fluorescence intensity (PECAM-1 [4]; [5]) | PECAM-1 (peak) log fluorescence intensity (PECAM-1 [4]; [5])
CN[C@H]1CC[C@@H](c2ccc(Cl)c(Cl)c2)c2ccccc21 [sertraline] | Dose-dependent inhibition | decreases with increasing amounts of sertraline | Mild, but consistent reduction | ≥ 200 | 25 to 32 |  |  |  |  |  |  |  |  |  |  |  |  |  |  | 
N[C@H]1CC[C@@H](c2ccc(Cl)c(Cl)c2)c2ccccc21 [Desmethyl sertraline, N-desmethylsertraline] |  |  |  |  |  | 1.2 | 3.3 | 0.4 | 10.68 | 8.04 | 9.92 | striking decreases in expression | 859 | 1144 | 1247 | 42 | 40 | 91 | 105 | 84

From patent US6552014B2, “Methods of inhibiting platelet activation with selective serotonin reuptake inhibitors” (HeartDrug Research, L.L.C., priority 1999, dated 2003)
